From ChEMBL document CHEMBL2021804, “Synthesis and evaluation of piperidine urea derivatives as efficacious 11β-hydroxysteroid dehydrogenase type 1 inhibitors in diabetic ob/ob mice” (Bioorg Med Chem Lett, 2012) come the findings set out here.

Some results are limits rather than exact numbers.

Series [1] has as its target 11-beta-hydroxysteroid dehydrogenase 1 (Homo sapiens, UniProt P28845). In words: Inhibition of human 11beta-HSD1 expressed in HEK293 cells assessed as [3H]cortisol production after 60 mins by SPA. In kind it is cell-based.
Series [2] concerns the target 11-beta-hydroxysteroid dehydrogenase 1 (Mus musculus, UniProt P50172). In words: Inhibition of mouse 11beta-HSD1 expressed in HEK293 cells assessed as [3H]cortisol production after 60 mins by SPA. Format: cell-based.
For series [3], the system named is HEK293. Briefly: Selectivity ratio of IC50 for human 11beta-HSD1 expressed in HEK293 cells to IC50 for mouse 11beta-HSD1 expressed in HEK293 cells. Format: cell-based.
The target in series [4] is T1, 11-beta-hydroxysteroid dehydrogenase type 2 (Homo sapiens, UniProt P80365).
T1 sequence (P80365 whole entry): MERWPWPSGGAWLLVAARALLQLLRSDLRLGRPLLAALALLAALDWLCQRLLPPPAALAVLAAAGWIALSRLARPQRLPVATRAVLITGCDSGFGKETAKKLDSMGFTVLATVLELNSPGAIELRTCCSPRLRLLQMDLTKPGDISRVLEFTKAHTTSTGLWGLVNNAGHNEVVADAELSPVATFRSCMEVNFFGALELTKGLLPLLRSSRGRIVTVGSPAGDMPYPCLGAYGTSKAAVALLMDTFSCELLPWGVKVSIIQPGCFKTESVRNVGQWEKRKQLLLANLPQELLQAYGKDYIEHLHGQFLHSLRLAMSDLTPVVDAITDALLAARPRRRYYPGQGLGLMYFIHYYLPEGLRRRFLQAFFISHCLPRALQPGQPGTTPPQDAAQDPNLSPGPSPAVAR
In words: Inhibition of human 11beta-HSD2 expressed in HEK293 cells assessed as [3H]cortisol production after 60 mins by SPA. Format: cell-based.

Series [5] has as its target T2, 11-beta-hydroxysteroid dehydrogenase type 2 (Mus musculus, UniProt P51661).
T2 sequence (P51661 whole entry): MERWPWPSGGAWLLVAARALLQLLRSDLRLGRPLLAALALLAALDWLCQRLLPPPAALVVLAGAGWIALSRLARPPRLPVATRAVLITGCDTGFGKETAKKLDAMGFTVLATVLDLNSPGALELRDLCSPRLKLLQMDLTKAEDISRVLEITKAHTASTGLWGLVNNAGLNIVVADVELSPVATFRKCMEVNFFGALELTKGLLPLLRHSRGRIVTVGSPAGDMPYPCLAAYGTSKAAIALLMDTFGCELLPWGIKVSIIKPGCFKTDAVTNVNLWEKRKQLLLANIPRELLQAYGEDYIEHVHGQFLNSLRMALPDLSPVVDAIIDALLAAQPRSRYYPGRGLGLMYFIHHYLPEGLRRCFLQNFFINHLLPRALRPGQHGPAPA
Briefly: Inhibition of mouse 11beta-HSD2 expressed in HEK293 cells assessed as [3H]cortisol production after 60 mins by SPA. In kind it is cell-based.

Series [6] relates to HEK293. Briefly: Selectivity ratio of IC50 for human 11beta-HSD2 expressed in HEK293 cells to IC50 for human 11beta-HSD1 expressed in HEK293 cells. In kind it is cell-based.
A short description of series [7]: Tmax in po dosed Sprague-Dawley rat. In kind it is ADME, organism-based. Particulars: in vivo.
Series [8] is described as follows: Cmax in po dosed Sprague-Dawley rat. Format: ADME, organism-based. Particulars: in vivo. More on the design: route oral.
Series [9] is described as follows: AUC (0 to t) in po dosed Sprague-Dawley rat. Format: ADME, organism-based. Particulars: plasma.
The nature of series [10]: AUC (0 to infinity) in po dosed Sprague-Dawley rat. In kind it is ADME, organism-based. More on the design: route oral, time infinity. To be noted: plasma.
Series [11] in a line: Mean residence time in po dosed Sprague-Dawley rat. Format: ADME, organism-based. To be noted: in vivo.
A short description of series [12]: Half life in po dosed Sprague-Dawley rat. Format: ADME, organism-based. Particulars: in vivo.
Series [13] in a line: AUC in Sprague-Dawley rat at 5 mg/kg, po. Set-up: dose 5 mg/kg, route oral. Particulars: plasma. In kind it is ADME, organism-based.
Series [14] relates to Mus musculus. In words: Antidiabetic activity in ob/ob mouse type 2 diabetes model assessed as reduction in nonfasting blood glucose level at 50 mg/kg, ip once daily for 5 days. In kind it is functional. More on the design: scale not given: the % may be the effect or the level left. Particulars: route intraperitoneal.
Series [15] has as its system Mus musculus. In words: Antidiabetic activity in ob/ob mouse type 2 diabetes model assessed as reduction in fasting blood glucose level at 50 mg/kg, ip once daily for 5 days measured on day 10. Set-up: scale not given: the % may be the effect or the level left. In kind it is functional. Particulars: route intraperitoneal.
Series [16] concerns Mus musculus. In words: Antidiabetic activity in ob/ob mouse type 2 diabetes model assessed as reduction in fasting blood glucose level at 50 mg/kg, ip once daily for 5 days measured on day 15. To be noted: route intraperitoneal. In kind it is functional. Set-up: scale not given: the % may be the effect or the level left.
Series [17] deals with Mus musculus. Briefly: Antidiabetic activity in ob/ob mouse type 2 diabetes model assessed as reduction in fasting blood glucose level at 50 mg/kg, ip once daily for 5 days measured on day 20. In kind it is functional. Set-up: scale not given: the % may be the effect or the level left. To be noted: route intraperitoneal.
Series [18] deals with Mus musculus. In words: Antidiabetic activity in ob/ob mouse type 2 diabetes model assessed as reduction in blood glucose level at 50 mg/kg, ip once daily for 5 days measured on day 10. Set-up: scale not given: the % may be the effect or the level left. To be noted: route intraperitoneal. In kind it is functional.
Series [19] has as its system Mus musculus. In words: Antidiabetic activity in ob/ob mouse type 2 diabetes model assessed as reduction in blood glucose level at 50 mg/kg, ip once daily for 5 days measured on day 15. In kind it is functional. More on the design: scale not given: the % may be the effect or the level left. Particulars: route intraperitoneal.
Series [20] has as its system Mus musculus. Briefly: Antidiabetic activity in ob/ob mouse type 2 diabetes model assessed as reduction in blood glucose level at 50 mg/kg, ip once daily for 5 days measured on day 20. Set-up: scale not given: the % may be the effect or the level left. In kind it is functional. Particulars: route intraperitoneal.
The subject of series [21] is Mus musculus. In words: Antidiabetic activity in ob/ob mouse type 2 diabetes model assessed as reduction in fasting blood glucose level at 50 mg/kg, ip once daily for 20 days. In kind it is functional. More on the design: scale not given: the % may be the effect or the level left. To be noted: route intraperitoneal.
For series [22], the system named is Mus musculus. In words: Antidiabetic activity in ob/ob mouse type 2 diabetes model assessed as reduction in nonfasting blood glucose level at 50 mg/kg, ip once daily for 20 days. In kind it is functional. More on the design: scale not given: the % may be the effect or the level left. Particulars: route intraperitoneal.
Series [23] concerns Mus musculus. Briefly: Toxicity in ob/ob mouse type 2 diabetes model assessed as effect on body weight at 50 mg/kg, ip once daily for 20 days measured every 5 days for 20 days. In kind it is organism-based. More on the design: dose 50 mg/kg, route intraperitoneal. To be noted: in vivo, 480 h.
Series [24] has as its system Mus musculus. Briefly: Toxicity in ob/ob mouse type 2 diabetes model assessed as effect on food intake at 50 mg/kg, ip once daily for 20 days measured every 4 days for 20 days. More on the design: dose 50 mg/kg, route intraperitoneal. Format: organism-based. Particulars: in vivo, 480 h.

11-beta-hydroxysteroid dehydrogenase 1 (Homo sapiens, UniProt P28845), sequence (P28845 whole entry): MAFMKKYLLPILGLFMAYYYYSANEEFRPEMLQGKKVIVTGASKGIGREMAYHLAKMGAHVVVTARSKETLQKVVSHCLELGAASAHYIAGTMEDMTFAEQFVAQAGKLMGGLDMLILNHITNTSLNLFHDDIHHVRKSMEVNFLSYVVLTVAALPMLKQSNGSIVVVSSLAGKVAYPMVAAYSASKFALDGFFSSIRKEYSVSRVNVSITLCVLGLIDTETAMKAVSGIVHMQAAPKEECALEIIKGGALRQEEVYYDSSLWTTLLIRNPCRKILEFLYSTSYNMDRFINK
11-beta-hydroxysteroid dehydrogenase 1 (Mus musculus, UniProt P50172), sequence (P50172 whole entry): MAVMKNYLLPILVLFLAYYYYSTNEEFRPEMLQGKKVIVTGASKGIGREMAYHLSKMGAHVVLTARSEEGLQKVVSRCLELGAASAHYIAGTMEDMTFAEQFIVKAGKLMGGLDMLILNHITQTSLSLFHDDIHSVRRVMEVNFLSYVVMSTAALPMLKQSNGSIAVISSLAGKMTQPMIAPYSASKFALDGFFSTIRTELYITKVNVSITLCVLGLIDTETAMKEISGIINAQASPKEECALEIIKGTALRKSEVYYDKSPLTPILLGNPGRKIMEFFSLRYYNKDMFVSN

Take `O=C(NC1CCCCCC1)c1ccc(CN2C(=O)Nc3ccc(Cl)cc3S2(=O)=O)cc1`: the half-maximal effective concentration (EC50) in series [1] is 0.802 µM; in series [2], 0.145 µM.

On to `O=C(NC12CC3CC(CC(C3)C1)C2)c1ccc(CN2C(=O)Nc3ccc(Cl)cc3S2(=O)=O)cc1`, for which the results for the EC50 in series [1] and in series [2] were 0.047 µM and 0.014 µM, respectively.

Take `O=C(c1ccc(CN2C(=O)Nc3ccc(Cl)cc3S2(=O)=O)cc1)N(C1CCCCC1)C1CC1`: the EC50 is 0.06 µM in series [1] and 0.185 µM in series [2].

With `O=C(N1CCC(CN2C(=O)Nc3ccc(Cl)cc3S2(=O)=O)CC1)N(C1CCCCCC1)C1CC1`, the values for the EC50 in series [1] and in series [2] were 0.517 µM and 0.01 µM, respectively. The Ratio IC50 with HEK293 [3] is 3.

On to `CN(C(=O)c1ccc(CN2C(=O)Nc3ccc(Cl)cc3S2(=O)=O)cc1)C1CCCCCC1`, for which the EC50 in series [1] was 0.09 µM; in series [2] it was 0.21 µM.

As for `CN(C(=O)c1cccc(CN2C(=O)Nc3ccc(Cl)cc3S2(=O)=O)c1)C1CCCCCC1`, the EC50 came to 0.004 µM in [1] and 0.401 µM in series [2].

`O=C(NC1CCCCC1)c1ccc(CN2C(=O)Nc3ccc(Cl)cc3S2(=O)=O)cc1`: the EC50 in [1] was determined as 0.686 µM; in series [2], 0.529 µM.

Consider `O=C(N1CCC(CN2C(=O)Nc3ccc(Cl)cc3S2(=O)=O)CC1)N(C1CCCCC1)C1CC1`, for which the EC50 in [1] was 0.121 µM; in series [2], 0.037 µM; in [4], 2.2 µM; in series [5] it was above 100 µM. Besides, the Ratio IC50 in the series on HEK293 [3] is 3.

Turning to `CN(C(=O)c1cccc(CN2C(=O)Nc3ccc(Cl)cc3S2(=O)=O)c1)C1C2CC3CC(C2)CC1C3` (configuration not stated), the 50% effective concentration (EC50) in series [1] is 0.004 µM; in [2] it was 0.069 µM.

Regarding `CN(C(=O)N1CCC(CN2C(=O)Nc3ccc(Cl)cc3S2(=O)=O)CC1)C1CCCCCC1`, the concentration giving a half-maximal response (EC50) in series [1] was 0.021 µM; in series [2], 0.00041 µM; in series [4], 0.86 µM; in [5] it was above 100 µM. In addition, the Ratio IC50 is 3 with HEK293 [3] and 40 with HEK293 [6]. In [7], the time of peak concentration (Tmax) is 2 h. This compound returned a Cmax in series [8] of 46.8 ng/mL. In series [9], this compound displayed an AUC(0-t) of 173 ng·h/mL. In series [10], this compound had an AUC(0-inf) of 209 ng·h/mL. The compound also showed an MRT in series [11] of 4.24 h. This compound showed a half-life in series [12] of 2.3 h. The compound also gave an AUC in series [13] of 147 ng·h/mL. For the same compound, the Activity is given as 25% in the series with Mus musculus [14]; 33.3% in the series on Mus musculus [15]; 39.4% with Mus musculus [16]; 36.1% with Mus musculus [17]; 27.9% with Mus musculus [18]; 34.6% with Mus musculus [19]. Also, the Activity is 35.6% in the series on Mus musculus [20]; 31.4% with Mus musculus [21]; 25.7% in the series with Mus musculus [22]; “Non-toxic” in the series with Mus musculus [23]; “Non-toxic” in the series with Mus musculus [24].

On to `CN(C(=O)c1ccc(CN2C(=O)Nc3ccc(Cl)cc3S2(=O)=O)cc1)C12CC3CC(CC(C3)C1)C2`, for which the EC50 in [1] amounted to 0.07 µM; in series [2], 0.055 µM.

As to `O=C(NC1CCCCCCC1)c1ccc(CN2C(=O)Nc3ccc(Cl)cc3S2(=O)=O)cc1`, the concentration giving a half-maximal response (EC50) in series [1] worked out at 0.443 µM; in series [2], 0.18 µM.

Consider `O=C(c1ccc(CN2C(=O)Nc3ccc(Cl)cc3S2(=O)=O)cc1)N(C1CCCCCC1)C1CC1`, for which the values for the 50% effective concentration (EC50) in [1] and in series [2] were 0.055 µM and 0.084 µM, respectively.

Regarding `O=C(NC1CCCCCC1)N1CCC(CN2C(=O)Nc3ccc(Cl)cc3S2(=O)=O)CC1`, the concentration giving a half-maximal response (EC50) came to 0.283 µM in series [1] and 0.017 µM in series [2]. In the series on HEK293 [3], the Ratio IC50 is 3.

As for `CN(C(=O)N1CCC(CN2C(=O)Nc3ccc(Cl)cc3S2(=O)=O)CC1)C1C2CC3CC(C2)CC1C3` (configuration not stated), the EC50 is 0.158 µM in series [1], 0.002 µM in series [2], 0.72 µM in [4] and above 100 µM in [5]. In the series with HEK293 [3], the Ratio IC50 worked out at 3.

Consider `CC1(C)[C@@H](O[C@H]2O[C@H](C(=O)O)[C@@H](O)[C@H](O)[C@H]2O[C@@H]2O[C@H](C(=O)O)[C@@H](O)[C@H](O)[C@H]2O)CC[C@]2(C)[C@H]3C(=O)C=C4[C@@H]5C[C@@](C)(C(=O)O)CC[C@]5(C)CC[C@@]4(C)[C@]3(C)CC[C@@H]12` [GLYCYRRHIZIN], for which the 50% effective concentration (EC50) in series [1] was found to be 0.01 µM; in series [2], 0.008 µM.

For the compound `O=C(c1cccc(CN2C(=O)Nc3ccc(Cl)cc3S2(=O)=O)c1)N(C1CCCCC1)C1CC1`, the EC50 in series [1] worked out at 0.003 µM; in [2], 0.058 µM.

For `O=C(c1cccc(CN2C(=O)Nc3ccc(Cl)cc3S2(=O)=O)c1)N(C1CCCCCC1)C1CC1`, the concentration giving a half-maximal response (EC50) worked out at 0.001 µM in series [1] and 0.258 µM in series [2]. Further, the time of peak concentration (Tmax) in [7] was determined as 2.3 h. Also, the maximum concentration (Cmax) in [8] was found to be 3.86 ng/mL. This compound showed an AUC(0-t) in series [9] of 15.5 ng·h/mL. This compound also had an AUC(0-inf) in series [10] of 16.1 ng·h/mL. Moreover, the mean residence time MRT in series [11] stood at 4.02 h. The same compound showed a half-life in series [12] of 2.02 h.
